The first experiment addresses T1, recombinant human Syk (GST-hSyk fusion protein) (Homo sapiens, UniProt P43405).
T1 construct: purchased Carna Biosciences 08-176
In words: Homogeneous Time-Resolved Fluorescence (HTRF) assay for the recombinant human Syk enzyme. It counts as biochemical. The settings on record: 10-dose titration, 25 μM ATP; read-out: rhSYK IC50. Put shortly: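 GST-hSyk (5 pM) preincubated 10 min with compound (0.1% DMSO) in 15 mM Tris-HCl pH 7.5, 2 mM DTT; reaction started with 250 nM biotinylated peptide, 5 mM Mg, 25 μM ATP, 45 min, room temperature. EDTA quench, Eu-anti-phosphotyrosine/SA-APC HTRF read after 30 min; IC50 from 10-dose titration (10 μM–0.508 nM), four-parameter fit.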
For the compound `Cc1cc(Nc2nccc(C(F)F)n2)cc(-c2cnn(CCNS(C)(=O)=O)c2)c1` [Example 27.1, N-(2-(4-(3-((4-(Difluoromethyl)pyrimidin-2-yl)amino)-5-methylphenyl)-1H-pyrazol-1-yl)ethyl)methanesulfonamide], the IC50 was 8.6 nM. The same measure, in the same setting: the value for `Cc1cc(Nc2nccc(C(F)F)n2)cc(-c2cnn(CC3(O)CCC3)c2)c1` [Example 29.1, 1-((4-(3-((4-(Difluoromethyl)pyrimidin-2-yl)amino)-5-methylphenyl)-1H-pyrazol-1-yl)methyl)cyclobutanol] was 2 nM.

The same experiment, now with this note: IC50 class; 10-dose titration, 25 μM ATP; read-out: rhSYK Activity.
`Cc1cc(Nc2nccc(C(F)F)n2)cc(-c2cnn(CCNC(=O)CC#N)c2)c1` [Example 26.4, 2-cyano-N-{2-[4-(3-{[4-(difluoromethyl)pyrimidin-2-yl]amino}-5-methylphenyl)-1H-pyrazol-1-yl]ethyl}acetamide]: the IC50 was at most 100 nM. Same read-out and setting: for `COCC(=O)NCCn1cc(-c2cc(C)cc(Nc3nccc(C(F)F)n3)c2)cn1` [Example 26.5, N-{2-[4-(3-{[4-(difluoromethyl)pyrimidin-2-yl]amino}-5-methylphenyl)-1H-pyrazol-1-yl]ethyl}-2-methoxyacetamide] the value was at most 100 nM; for `Cc1cc(Nc2nccc(C(F)F)n2)cc(-c2cnn(CCNS(C)(=O)=O)c2)c1` [Example 27.1, N-(2-(4-(3-((4-(Difluoromethyl)pyrimidin-2-yl)amino)-5-methylphenyl)-1H-pyrazol-1-yl)ethyl)methanesulfonamide], at most 100 nM; for `COC(=O)NCCn1cc(-c2cc(C)cc(Nc3nccc(C(F)F)n3)c2)cn1` [Example 27.2, methyl {2-[4-(3-{[4-(difluoromethyl)pyrimidin-2-yl]amino}-5-methylphenyl)-1H-pyrazol-1-yl]ethyl}carbamate], at most 100 nM. Regarding `COCCOC(=O)NCCn1cc(-c2cc(C)cc(Nc3nccc(C(F)F)n3)c2)cn1` [Example 27.3, 2-methoxyethyl {2-[4-(3-{[4-(difluoromethyl)pyrimidin-2-yl]amino}-5-methylphenyl)-1H-pyrazol-1-yl]ethyl}carbamate], the IC50 is at most 100 nM.

As to `Cc1cc(Nc2nccc(C(F)F)n2)cc(-c2cnn(CC(C)(C)NS(C)(=O)=O)c2)c1` [Example 27.4, N-{2-[4-(3-{[4-(difluoromethyl)pyrimidin-2-yl]amino}-5-methylphenyl)-1H-pyrazol-1-yl]-1,1-dimethylethyl}methanesulfonamide], the IC50 is at most 100 nM. On to `Cc1cc(Nc2nccc(C(F)F)n2)cc(-c2cnn(CC(C)(C)NS(=O)(=O)C3CC3)c2)c1` [Example 27.5, N-{2-[4-(3-{[4-(difluoromethyl)pyrimidin-2-yl]amino}-5-methylphenyl)-1H-pyrazol-1-yl]-1,1-dimethylethyl}cyclopropanesulfonamide], for which the IC50 was at most 100 nM.

Turning to `Cc1cc(Nc2nccc(C(F)F)n2)cc(-c2cnn(CC(C)(C)NS(=O)(=O)N3CCOCC3)c2)c1` [Example 27.6, N-{2-[4-(3-{[4-(difluoromethyl)pyrimidin-2-yl]amino}-5-methylphenyl)-1H-pyrazol-1-yl]-1,1-dimethylethyl}morpholine-4-sulfonamide], the IC50 is at most 100 nM. On the same count and under the same terms, for `Cc1cc(Nc2nccc(C(F)F)n2)cc(-c2cnn(CC(C)(C)NC(=O)NC(C)(C)C)c2)c1` [Example 27.7, 1-tert-butyl-3-{2-[4-(3-{[4-(difluoromethyl)pyrimidin-2-yl]amino}-5-methylphenyl)-1H-pyrazol-1-yl]-1,1-dimethylethyl}urea] the value was at most 100 nM.

`CCNC(=O)NC(C)(C)Cn1cc(-c2cc(C)cc(Nc3nccc(C(F)F)n3)c2)cn1` [Example 27.8, 1-{2-[4-(3-{[4-(difluoromethyl)pyrimidin-2-yl]amino}-5-methylphenyl)-1H-pyrazol-1-yl]-1,1-dimethylethyl}-3-ethylurea]: the IC50 was at most 100 nM.

For the compound `Cc1cc(Nc2nccc(C(F)F)n2)cc(-c2cnn(CC(C)(C)NC(=O)NCC3CCOCC3)c2)c1` [Example 27.9, 1-{2-[4-(3-{[4-(difluoromethyl)pyrimidin-2-yl]amino}-5-methylphenyl)-1H-pyrazol-1-yl]-1,1-dimethylethyl}-3-(tetrahydro-2H-pyran-4-ylmethyl)urea], the IC50 was at most 100 nM. Regarding `Cc1cc(Nc2nccc(C(F)F)n2)cc(-c2cnn(CC(C)(C)NC(=O)OCCF)c2)c1` [Example 27.10, 2-fluoroethyl {2-[4-(3-{[4-(difluoromethyl)pyrimidin-2-yl]amino}-5-methylphenyl)-1H-pyrazol-1-yl]-1,1-dimethylethyl}carbamate], the IC50 is at most 100 nM.

As to `COC(=O)NC(C)(C)Cn1cc(-c2cc(C)cc(Nc3nccc(C(F)F)n3)c2)cn1` [Example 27.11, methyl {2-[4-(3-{[4-(difluoromethyl)pyrimidin-2-yl]amino}-5-methylphenyl)-1H-pyrazol-1-yl]-1,1-dimethylethyl}carbamate], the IC50 is at most 100 nM.

With `COCCOC(=O)NC(C)(C)Cn1cc(-c2cc(C)cc(Nc3nccc(C(F)F)n3)c2)cn1` [Example 27.12, 2-methoxyethyl {2-[4-(3-{[4-(difluoromethyl)pyrimidin-2-yl]amino}-5-methylphenyl)-1H-pyrazol-1-yl]-1,1-dimethylethyl}carbamate], the IC50 was at most 100 nM. Regarding `Cc1cc(Nc2nccc(C(F)F)n2)cc(-c2cnn(CCNS(=O)(=O)C3CC3)c2)c1` [Example 27.13, N-{2-[4-(3-{[4-(difluoromethyl)pyrimidin-2-yl]amino}-5-methylphenyl)-1H-pyrazol-1-yl]ethyl}cyclopropanesulfonamide], the IC50 was at most 100 nM.

For the compound `Cc1cc(Nc2nccc(C(F)F)n2)cc(-c2cnn(CCNS(=O)(=O)N3CCOCC3)c2)c1` [Example 27.14, N-{2-[4-(3-{[4-(difluoromethyl)pyrimidin-2-yl]amino}-5-methylphenyl)-1H-pyrazol-1-yl]ethyl}morpholine-4-sulfonamide], the IC50 was at most 100 nM. Consider `Cc1cc(Nc2nccc(C(F)F)n2)cc(-c2cnn(CCNC(=O)NC(C)(C)C)c2)c1` [Example 27.15, 1-tert-butyl-3-{2-[4-(3-{[4-(difluoromethyl)pyrimidin-2-yl]amino}-5-methylphenyl)-1H-pyrazol-1-yl]ethyl}urea], for which the IC50 is at most 100 nM. `CCNC(=O)NCCn1cc(-c2cc(C)cc(Nc3nccc(C(F)F)n3)c2)cn1` [Example 27.16, 1-{2-[4-(3-{[4-(difluoromethyl)pyrimidin-2-yl]amino}-5-methylphenyl)-1H-pyrazol-1-yl]ethyl}-3-ethylurea]: the IC50 was at most 100 nM. As for `Cc1cc(Nc2nccc(C(F)F)n2)cc(-c2cnn(CCNC(=O)NCC3CCOCC3)c2)c1` [Example 27.17, 1-{2-[4-(3-{[4-(difluoromethyl)pyrimidin-2-yl]amino}-5-methylphenyl)-1H-pyrazol-1-yl]ethyl}-3-(tetrahydro-2H-pyran-4-ylmethyl)urea], the IC50 is at most 100 nM. For `Cc1cc(Nc2nccc(C(F)F)n2)cc(-c2cnn(CCNC(=O)OCCF)c2)c1` [Example 27.18, 2-fluoroethyl {2-[4-(3-{[4-(difluoromethyl)pyrimidin-2-yl]amino}-5-methylphenyl)-1H-pyrazol-1-yl]ethyl}carbamate], the IC50 was at most 100 nM. On the same count and under the same terms, the value for `Cc1cc(Nc2cc(C(F)F)ccn2)nc(-c2cnn(CC3(O)CCC3)c2)c1` [Example 29.2, 1-{[4-(6-{[4-(difluoromethyl)pyridin-2-yl]amino}-4-methylpyridin-2-yl)-1H-pyrazol-1-yl]methyl}cyclobutanol] was at most 100 nM.

For `Cc1ccnc(Nc2cc(C)cc(-c3cnn(CC4(O)CCC4)c3)n2)c1` [Example 29.3, 1-[(4-{4-methyl-6-[(4-methylpyridin-2-yl)amino]pyridin-2-yl}-1H-pyrazol-1-yl)methyl}cyclobutanol], the IC50 is at most 100 nM.

(Values after US9242984B2, “Pyrazolyl derivatives as Syk inhibitors” (Merck Sharp & Dohme Corp., priority 2012, dated 2016).)
